# In the supplement of paper PMC10307832:
# Tests used:
# Assay in all cases: relative viability (nuclei count vs DMSO), 5 days (fraction); higher = more cells survive
# [1] = compound: CC1=CN=C(N=C1C2=CNC(=C2)C(=O)N[C@H](CO)C3=CC(=CC=C3)Cl)NC4=C(C=C(C=C4)F)Cl [VX-11e] + Cc1nc(NC(=O)N2CCC[C@H]2C(N)=O)sc1-c1ccnc(C(C)(C)C(F)(F)F)c1 [Alpelisib] (partner 2 µM)
# How it was run: (§1)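 Dosing by pin tool came one day after lung cancer cell lines were seeded in 1536-well plates, using either one drug or a fixed anchor-drug dose plus five library-drug doses (not always all listed) in √10 steps. After 5 days, nuclei were counted on 4× images. Relative viability is treated-well nuclei count divided by vehicle-well nuclei count, and values are medians of duplicate plates.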
# [2] = compound: CC1=CN=C(N=C1C2=CNC(=C2)C(=O)N[C@H](CO)C3=CC(=CC=C3)Cl)NC4=C(C=C(C=C4)F)Cl [VX-11e] + CS(=O)(=O)N1CCN(Cc2cc3nc(-c4cccc5[nH]ncc45)nc(N4CCOCC4)c3s2)CC1 [Pictilisib] (partner 1 µM)
# How it was run: as §1
# [3] = compound: CC1=CN=C(N=C1C2=CNC(=C2)C(=O)N[C@H](CO)C3=CC(=CC=C3)Cl)NC4=C(C=C(C=C4)F)Cl [VX-11e] + NC(=O)Nc1cc(-c2cccc(F)c2)sc1C(=O)N[C@H]1CCCNC1 [AZD7762] (partner 0.2 µM)
# How it was run: as §1
# [4] = compound: CC1=CN=C(N=C1C2=CNC(=C2)C(=O)N[C@H](CO)C3=CC(=CC=C3)Cl)NC4=C(C=C(C=C4)F)Cl [VX-11e] + N=C(N)NC(=N)NCCc1ccccc1 [Phenformin] (partner 250 µM)
# How it was run: as §1
Cell Line,relative viability ([1]; first compound 0.04 µM),relative viability ([1]; first compound 0.1265 µM),relative viability ([1]; first compound 0.4 µM),relative viability ([1]; first compound 1.265 µM),relative viability ([1]; first compound 4 µM),relative viability ([2]; first compound 0.04 µM),relative viability ([2]; first compound 0.1265 µM),relative viability ([2]; first compound 0.4 µM),relative viability ([2]; first compound 1.265 µM),relative viability ([2]; first compound 4 µM),relative viability ([3]; first compound 0.04 µM),relative viability ([3]; first compound 0.1265 µM),relative viability ([3]; first compound 0.4 µM),relative viability ([3]; first compound 1.265 µM),relative viability ([3]; first compound 4 µM),relative viability ([4]; first compound 0.04 µM),relative viability ([4]; first compound 0.1265 µM),relative viability ([4]; first compound 0.4 µM),relative viability ([4]; first compound 1.265 µM),relative viability ([4]; first compound 4 µM)
HCC-827,1.02,1.06,0.983,1.16,0.599,1.03,0.883,1.06,1.19,0.813,0.162,0.222,0.212,0.349,0.21,0.409,0.413,0.369,0.479,0.375
HOP-62,1.05,0.921,0.892,0.866,0.502,0.42,0.51,0.152,0.125,0.116,0.486,0.644,0.234,0.315,0.166,0.754,0.647,0.524,0.421,0.377
LC-2-ad,0.913,0.867,0.778,0.714,0.585,0.398,0.432,0.349,0.247,0.163,0.913,0.844,0.798,0.458,0.468,0.525,0.461,0.395,0.372,0.467
LCLC-97TM1,0.285,0.253,,0.192,0.12,0.137,0.138,,0.143,0.0889,0.259,0.172,0.23,0.175,0.14,0.525,0.393,0.347,0.516,0.382
LCLC-103H,1.06,0.905,0.861,0.828,0.819,0.516,0.509,0.582,0.442,0.439,0.766,0.71,0.801,0.606,0.654,0.309,0.333,0.312,0.302,0.295
LK-2,,1.06,1.21,,0.543,,0.45,0.562,,0.337,0.299,0.388,0.326,0.316,0.294,0.241,0.601,0.311,0.189,0.173
LOU-NH91,0.692,0.689,,0.691,0.538,0.474,0.54,,0.501,0.504,0.746,0.805,,0.8,0.725,0.65,0.721,0.312,0.468,0.569
LU99A,0.423,0.38,0.574,0.209,0.175,0.285,0.283,0.385,0.278,0.155,0.244,0.37,0.142,0.18,0.195,0.881,0.754,0.28,0.907,0.382
LXF-289,1.05,0.962,0.961,0.942,0.695,0.785,0.754,0.66,0.686,0.333,1.15,1.12,,0.805,0.686,0.578,0.5,0.16,0.463,0.365
NCI-H23,0.575,0.53,0.435,0.384,0.242,0.35,0.437,0.176,0.31,0.19,0.208,0.231,0.167,0.176,0.119,0.682,0.701,,0.666,0.436
NCI-H322M,0.709,,0.82,0.729,0.53,0.496,,0.453,0.439,0.389,0.469,0.726,0.506,0.514,0.448,0.691,0.507,0.7,0.661,0.534
NCI-H358,0.857,0.89,,0.541,0.237,0.3,0.313,,0.372,0.254,0.594,0.499,,0.445,0.228,0.276,0.288,0.07,0.263,0.142
NCI-H441,0.804,0.709,,0.977,0.633,0.349,0.518,,0.371,0.24,1.23,1.12,,1.17,1.05,0.858,0.837,,0.732,0.49
NCI-H460,0.49,0.359,0.39,0.0408,0.0113,0.306,0.27,0.141,0.173,0.1,0.561,0.54,,0.646,0.378,0.588,0.471,0.127,0.174,0.0711
NCI-H596,0.504,0.458,0.459,0.48,0.357,0.377,0.429,0.378,0.431,0.319,1.03,0.895,1.01,0.748,0.778,0.648,0.791,0.8,0.369,0.599
NCI-H647,1.32,1.19,1.05,0.551,0.282,0.32,0.26,0.122,0.381,0.132,0.347,0.573,,0.426,0.215,0.677,0.442,0.249,0.266,0.196
NCI-H650,,0.961,1.14,,0.876,,0.927,1.23,,0.819,1.08,0.935,0.964,0.994,0.553,0.496,0.441,0.491,0.442,0.446
